Reference: article PMC6394990, “Detailed characterization of the solution kinetics and thermodynamics of biotin, biocytin and HABA binding to avidin and streptavidin” (PLoS ONE, 2019)
Several values for one entry are separate records, joined by “and”; a condition that tells them apart may be missing. Identical values can stand only once. Like-named read-outs stand apart in the source and are kept apart here.

Biological target: T1, avidin (AV) (Gallus gallus, UniProt P02701)
T1 construct: purchased Calbiochem (La Jolla, CA)
Assay: Stopped-flow association kinetics of dye-labeled biotin probes binding to avidin (F(t), rF(t); Arrhenius plots/global fitting)
Design: ln(k) / dS+ / dG+ / Eon for BFl / b of the line y = m1x+b1: unit not given here
Conditions: for k(average): k (full value); for ΔG^ǂ / ΔS^ǂ: forward; for kcal/mol (from Arrhenius slope): the values are: Ea forward; for Temperature at which the rate constants of AV and SAV reacting with BcO are the same, x: crossing of the AV and SAV lines; for half-time of association, rF¯(t) / halftime of association, rF¯(t): probe 20 nM; for half-time of association, rF¯(t): AV 260 nM
Experimental: These reactions were carried out in a buffered solution of 10 mM Tris-HCl, 100 mM KCl, 2.5 mM MgCl2 and 1 mM CaCl2 at pH 8 and only AV-BcO reactions included pH 9 and 10. The concentrations, after mixing, were of 20 nM of dye-labeled B7 probe and 260 nM, 520 nM or 1040 nM of AV; and 200 nM, 300 nM, 400 nM or 800 nM of SAV at temperatures of 10, 15, 20 and 25°C. The deglycosylation of AV (for comparative association reactions) was carried out using the provided standard protocol with endoglycosidase H [47], both with and without incubation of a denaturant solution (2% SDS and 1M 2-mercaptoethanol).
The reactions were collected with the SF instrument, described previously. The fluorescence signal was collected through a 520 nm interference filter (Oriel Corp., Stratford, CT) with a detector time constant and SF dead time of 1 μs and 1 ms, respectively. The excitation light was provided by the Coherent Ar^+ ion laser (described above) at 488 nm with […] of incident power on the reaction cuvette. The laser source was followed by the photo-elastic modulator described above with the axis oriented 45^o with respect to the electric vector of the incident light and with the half-wave modulation (50 kHz) set for 488 nm excitation. The demodulation circuitry following the photomultiplier provided a DC(t) and a rectified AC(t) which were converted to digital data by a high-speed digitizer (PCI-5122) from National Instruments (Austin, TX) with 14-bit resolution and 100 MHz bandwidth, through channels 0 and 1. The data acquisition was controlled by LabVIEW (Vr 8) software at a collection rate of 6120 data points/second and stored in spreadsheets. The AC(t) and DC(t) data were baseline corrected before obtaining the signal ratio (Eq 4) as a function of time (ρt).
The constant AGain is the instrumental amplitude gain and was evaluated by solving ρ(t) using the known steady state anisotropy (rss) of the complexes which is equivalent to the r(t) at t = ∞; and H, obtained from the equivalent grating factor (G) for the filters and photo multiplier tubes in the SF. For the probes used in here G was 0.82 and H = (1-G)/(1+G) = 0.099. Knowing Again and H, the AC(t) and DC(t) signals can be solved for r(t) and F(t) (Eqs 4 and 5) and the normalized fluorescence, F¯(t) , and corrected fluorescence anisotropy, rF¯(t), were obtained when F¯(0) and rF¯(0) were scaled to 1 at t = 0.
The F¯(t) (Eq 6) is equivalent to (I||) + 2 (I⊥) and proportional to quantum yield (QYi), molar absorptivity (εi) and to the formation or disappearance of the emitting species Xi(t); and rF¯(t) including the steady state anisotropies (rss) of each fluorescent species (Eq 7).
The possible reaction models were discriminated by the squared residuals of the observed and calculated association traces of both fluorescence and anisotropy fluorescence signals, F¯(t) and rF¯(t) , respectively.

T1 sequence (P02701 25-152): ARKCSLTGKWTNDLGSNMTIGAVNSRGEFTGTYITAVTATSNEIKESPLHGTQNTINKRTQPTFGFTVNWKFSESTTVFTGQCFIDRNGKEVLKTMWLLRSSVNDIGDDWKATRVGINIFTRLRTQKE

Compound: NC(CCCCNC(=O)CCCC[C@@H]1SC[C@@H]2NC(=O)N[C@@H]21)C(=O)NCCCCCNC(=O)c1ccc(-c2c3cc(F)c(=O)cc-3oc3cc(O)c(F)cc23)c(C(=O)O)c1 (stereo partly drawn) [BcO, Oregon green 488 Biocytin]
- kon (AV, pH 9, 15 (288.15 K), k (scaled)): 3.4e+06 M⁻¹ s⁻¹
- ln(k) (AV, pH 9, 20 (293.15 K)): 15.5
- k(average) (AV, pH 9, 20 (293.15 K)): 5.37E+06
- kon (AV, pH 9, 20 (293.15 K), k (scaled)): 5.4e+06 M⁻¹ s⁻¹
- ln(k) (AV, pH 9, 25 (298.15 K)): 15.9
- k(average) (AV, pH 9, 25 (298.15 K)): 7.85E+06
- kon (AV, pH 9, 25 (298.15 K), k (scaled)): 7.9e+06 M⁻¹ s⁻¹
- ΔG^ǂ (AV, pH 9): 4.7 ± 0.1 kcal/mol
- ΔS^ǂ (AV, pH 9): 30.9 ± 2.5 cal/°K·mol
- Ea^Forward (AV, pH 10): 14.9 ± 0.7 kcal/mol
- ln(k) (AV, pH10, 10 (283.15 K)): 14.5
- k(average) (AV, pH10, 10 (283.15 K)): 1.93E+06
- kon (AV, pH10, 10 (283.15 K), k (scaled)): 1.9e+06 M⁻¹ s⁻¹
- ln(k) (AV, pH10, 15 (288.15 K)): 14.9
- k(average) (AV, pH10, 15 (288.15 K)): 2.97E+06
- kon (AV, pH10, 15 (288.15 K), k (scaled)): 3e+06 M⁻¹ s⁻¹
- ln(k) (AV, pH10, 20 (293.15 K)): 15.4
- k(average) (AV, pH10, 20 (293.15 K)): 4.75E+06
- kon (AV, pH10, 20 (293.15 K), k (scaled)): 4.7e+06 M⁻¹ s⁻¹
- ln(k) (AV, pH10, 25 (298.15 K)): 15.8
- k(average) (AV, pH10, 25 (298.15 K)): 7.23E+06
- kon (AV, pH10, 25 (298.15 K), k (scaled)): 7.2e+06 M⁻¹ s⁻¹
- ΔG^ǂ (AV, pH 10): 4.7 ± 0.3 kcal/mol
- ΔS^ǂ (AV, pH 10): 34.1 ± 1.3 cal/°K·mol
- slope (Arrhenius linear fit) (AV, ph8): -7283
- slope (Arrhenius linear fit) (AV, ph9): -6979.6
- kcal/mol (from Arrhenius slope) (AV, ph9): 13.9 kcal/mol
- slope (Arrhenius linear fit) (AV, ph10): -7486
- kcal/mol (from Arrhenius slope) (AV, ph10): 14.9 kcal/mol
- Temperature at which the rate constants of AV and SAV reacting with BcO are the same, x: 52.1 °C
- Temperature at which the rate constants of AV and SAV reacting with BcO are the same, x (x=(b1-b2)/(m2-m1) inverted): 325.2 °K
- kon (pH 8, AV 260 nM, 10°C, pH 8, read-out: kon AV-BcO F¯(t)): 2.4e+06 ± 100000 M⁻¹ s⁻¹
- kon (pH 8, AV 260 nM, 10°C, pH 8, read-out: kon AV-BcO r¯F(t)): 2.7e+06 ± 100000 M⁻¹ s⁻¹
- kon (pH 8, AV 260 nM, 15°C, pH 8, read-out: kon AV-BcO F¯(t)): 4.1e+06 ± 100000 M⁻¹ s⁻¹
- kon (pH 8, AV 260 nM, 15°C, pH 8, read-out: kon AV-BcO r¯F(t)): 4e+06 ± 100000 M⁻¹ s⁻¹
- kon (pH 8, AV 260 nM, 20°C, pH 8, read-out: kon AV-BcO F¯(t)): 5.7e+06 ± 100000 M⁻¹ s⁻¹
- kon (pH 8, AV 260 nM, 20°C, pH 8, read-out: kon AV-BcO r¯F(t)): 5.9e+06 ± 100000 M⁻¹ s⁻¹
- kon (pH 8, AV 260 nM, 25°C, pH 8, read-out: kon AV-BcO F¯(t)): 9.5e+06 ± 100000 M⁻¹ s⁻¹
- kon (pH 8, AV 260 nM, 25°C, pH 8, read-out: kon AV-BcO r¯F(t)): 9.5e+06 ± 100000 M⁻¹ s⁻¹
- kon (pH 8, AV 520 nM, 10°C, pH 8, read-out: kon AV-BcO F¯(t)): 2.6e+06 ± 200000 M⁻¹ s⁻¹
- kon (pH 8, AV 520 nM, 10°C, pH 8, read-out: kon AV-BcO r¯F(t)): 2.7e+06 ± 100000 M⁻¹ s⁻¹
- kon (pH 8, AV 520 nM, 15°C, pH 8, read-out: kon AV-BcO F¯(t)): 4e+06 ± 100000 M⁻¹ s⁻¹
- kon (pH 8, AV 520 nM, 15°C, pH 8, read-out: kon AV-BcO r¯F(t)): 3.8e+06 ± 100000 M⁻¹ s⁻¹
- kon (pH 8, AV 520 nM, 20°C, pH 8, read-out: kon AV-BcO F¯(t)): 5.9e+06 ± 300000 M⁻¹ s⁻¹
- kon (pH 8, AV 520 nM, 20°C, pH 8, read-out: kon AV-BcO r¯F(t)): 5.8e+06 ± 100000 M⁻¹ s⁻¹
- kon (pH 8, AV 520 nM, 25°C, pH 8, read-out: kon AV-BcO F¯(t)): 9.5e+06 ± 300000 M⁻¹ s⁻¹
- kon (pH 8, AV 520 nM, 25°C, pH 8, read-out: kon AV-BcO r¯F(t)): 9.5e+06 ± 100000 M⁻¹ s⁻¹
- kon (pH 8, AV 1040 nM, 10°C, pH 8, read-out: kon AV-BcO F¯(t)): 2.5e+06 ± 200000 M⁻¹ s⁻¹
- kon (pH 8, AV 1040 nM, 10°C, pH 8, read-out: kon AV-BcO r¯F(t)): 2.7e+06 ± 100000 M⁻¹ s⁻¹
- kon (pH 8, AV 1040 nM, 15°C, pH 8, read-out: kon AV-BcO F¯(t)): 3.9e+06 ± 200000 M⁻¹ s⁻¹
- kon (pH 8, AV 1040 nM, 15°C, pH 8, read-out: kon AV-BcO r¯F(t)): 4e+06 ± 200000 M⁻¹ s⁻¹
- kon (pH 8, AV 1040 nM, 20°C, pH 8, read-out: kon AV-BcO F¯(t)): 6e+06 ± 100000 M⁻¹ s⁻¹
- kon (pH 8, AV 1040 nM, 20°C, pH 8, read-out: kon AV-BcO r¯F(t)): 6.1e+06 ± 100000 M⁻¹ s⁻¹
- kon (pH 8, AV 1040 nM, 25°C, pH 8, read-out: kon AV-BcO F¯(t)): 9.7e+06 ± 300000 M⁻¹ s⁻¹
- kon (pH 8, AV 1040 nM, 25°C, pH 8, read-out: kon AV-BcO r¯F(t)): 9.4e+06 ± 200000 M⁻¹ s⁻¹
- kon (pH 8, AV, Arrhenius plot, 23°C and pH 8, read-out: kon): 7.8e+06 ± 4e+11 M⁻¹ s⁻¹
- kon (pH 8, AV, pH 8, 10°C, read-out: kon): 2.6e+06 ± 300000 M⁻¹ s⁻¹
- kon (pH 8, AV, pH 8, 15°C, read-out: kon): 3.9e+06 ± 300000 M⁻¹ s⁻¹
- kon (pH 8, AV, pH 8, 20°C, read-out: kon): 5.9e+06 ± 400000 M⁻¹ s⁻¹
- kon (pH 8, AV, pH 8, 25°C, read-out: kon): 9.5e+06 ± 400000 M⁻¹ s⁻¹
- kon (pH 9, AV, pH 9, 10°C, read-out: kon): 2.3e+06 ± 100000 M⁻¹ s⁻¹
- kon (pH 9, AV, pH 9, 15°C, read-out: kon): 3.4e+06 ± 100000 M⁻¹ s⁻¹
- kon (pH 9, AV, pH 9, 20°C, read-out: kon): 5.4e+06 ± 200000 M⁻¹ s⁻¹
- kon (pH 9, AV, pH 9, 25°C, calculated from an Arrhenius plot, read-out: kon): 7.9e+06 ± 300000 M⁻¹ s⁻¹
- kon (pH 10, AV, pH 10, 10°C, read-out: kon): 1.9e+06 ± 100000 M⁻¹ s⁻¹
- kon (pH 10, AV, pH 10, 15°C, read-out: kon): 3e+06 ± 100000 M⁻¹ s⁻¹
- kon (pH 10, AV, pH 10, 20°C, read-out: kon): 4.8e+06 ± 200000 M⁻¹ s⁻¹
- kon (pH 10, AV, pH 10, 25°C, calculated from an Arrhenius plot, read-out: kon): 7.2e+06 ± 300000 M⁻¹ s⁻¹
- half-time of association, rF¯(t) (pH 8, 10°C): 1024 ms
- half-time of association, rF¯(t) (pH 8, 15°C): 695 ms
- half-time of association, rF¯(t) (pH 8, 20°C): 452 ms and 455 ms
- half-time of association, rF¯(t) (pH 8, 25°C): 280 ms
- halftime of association, rF¯(t) (AV 520 nM, pH 8, 20°C): 229 ms
- halftime of association, rF¯(t) (AV 1040 nM, pH 8, 20°C): 109 ms
- kon (untreated AV, 15°C, read-out: kon): 3.9e+06 M⁻¹ s⁻¹
